From PubChem BioAssay AID248 (DTP/NCI, 2004)
Inconclusive results and toxic doses are left out. Cut-off read from the data, not from the text of the source: active = T/C of 150% or more; inactive = T/C below 125%.

Test system: L1210 leukemia ip in BDF1 mice, survival T/C
Assay: NCI In Vivo Anticancer Drug Screen. Data for tumor model L1210 Leukemia (intraperitoneal) in B6D2F1 (BDF1) mice
Settings: endpoint: mean survival time, higher = longer survival
In short: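 Read-out is survival time, reported as the treated-group measurement over the vehicle-control measurement.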

[1] = dose: 100.0 mg/kg/injection, schedule: Q04DX002 (ip), vehicle: saline with Tween-80
[2] = dose: 200.0 mg/kg/injection, schedule: Q04DX002 (ip), vehicle: saline with Tween-80
[3] = dose: 400.0 mg/kg/injection, schedule: Q04DX002 (ip), vehicle: saline with Tween-80
[4] = dose: 100.0 mg/kg/injection, schedule: Q04DX003 (ip), vehicle: Klucel (hydroxypropylcellulose) (HPC)
[5] = dose: 200.0 mg/kg/injection, schedule: Q04DX003 (ip), vehicle: Klucel (hydroxypropylcellulose) (HPC)
[6] = dose: 400.0 mg/kg/injection, schedule: Q04DX003 (ip), vehicle: Klucel (hydroxypropylcellulose) (HPC)
[7] = dose: 25.0 mg/kg/injection, schedule: Q01DX009 (ip), vehicle: saline with Tween-80
[8] = dose: 50.0 mg/kg/injection, schedule: Q01DX001 (ip), vehicle: saline
[9] = dose: 100.0 mg/kg/injection, schedule: Q01DX001 (ip), vehicle: saline
[10] = dose: 200.0 mg/kg/injection, schedule: Q01DX001 (ip), vehicle: saline
[11] = dose: 400.0 mg/kg/injection, schedule: Q01DX001 (ip), vehicle: saline
[12] = dose: 100.0 mg/kg/injection, schedule: Q01DX009 (ip), vehicle: Klucel (hydroxypropylcellulose) (HPC)
[13] = dose: 200.0 mg/kg/injection, schedule: Q01DX009 (ip), vehicle: Klucel (hydroxypropylcellulose) (HPC)
[14] = dose: 100.0 mg/kg/injection, schedule: Q01DX009 (ip), vehicle: saline with Tween-80
[15] = dose: 200.0 mg/kg/injection, schedule: Q01DX009 (ip), vehicle: saline with Tween-80
[16] = dose: 400.0 mg/kg/injection, schedule: Q01DX009 (ip), vehicle: saline with Tween-80
[17] = dose: 100.0 mg/kg/injection, schedule: Q01DX001 (ip), vehicle: saline with Tween-80
[18] = dose: 200.0 mg/kg/injection, schedule: Q01DX001 (ip), vehicle: saline with Tween-80

Measured: T/C

COc1ccccc1OC(=O)c1ccccc1OC(=O)c1cccnc1
inactive: [1] 101 % of control | [2] 96 % of control | [3] 89 % of control

CC(=O)CC(O)(C(F)(F)F)C(F)(F)F
inactive: dose: 100.0 mg/kg/injection, schedule: Q01DX009 (ip), vehicle: saline 105 % of control | dose: 200.0 mg/kg/injection, schedule: Q01DX009 (ip), vehicle: saline 101 % of control | dose: 400.0 mg/kg/injection, schedule: Q01DX009 (ip), vehicle: saline 93 % of control

O=c1c2ccccc2c2ccccc2n1C(c1ccccc1)c1ccccc1
inactive: [4] 98 % of control | [5] 88 % of control | [6] 88 % of control

Cc1cc(C)c(C(Br)C(Br)c2c(C)cc(C)cc2C)c(C)c1 (centres undefined)
inactive: dose: 12.5 mg/kg/injection, schedule: Q01DX009 (ip), vehicle: saline with Tween-80 88 % of control | dose: 12.5 mg/kg/injection, schedule: Q04DX003 (ip), vehicle: saline with Tween-80 98 % of control | [7] 87 % of control | dose: 25.0 mg/kg/injection, schedule: Q04DX003 (ip), vehicle: saline with Tween-80 93 % of control | dose: 50.0 mg/kg/injection, schedule: Q04DX003 (ip), vehicle: saline with Tween-80 91 % of control

CCC[CH2][Pb]([CH2]CCC)([CH2]CCC)[CH2]CCC
inactive: [1] 107 % of control | [2] 105 % of control | [3] 102 % of control

Cc1ccccc1C(c1ccccc1)N(C)C (centres undefined)
inactive: [8] 100 % of control | [9] 96 % of control | [10] 96 % of control | [11] 92 % of control

CCN=C(NCC)Nc1ccc(NC(=O)Nc2ccc(NC(=O)Nc3ccc(NC(=NCC)NCC)cc3)cc2)cc1
inactive: dose: 1.0 mg/kg/injection, schedule: Q01DX Z (ip), vehicle: carboxymethylcellulose (CMC) 97 % of control | dose: 2.0 mg/kg/injection, schedule: Q01DX Z (ip), vehicle: carboxymethylcellulose (CMC) 96 % of control | dose: 4.1 mg/kg/injection, schedule: Q01DX Z (ip), vehicle: carboxymethylcellulose (CMC) 102 % of control | dose: 8.3 mg/kg/injection, schedule: Q01DX Z (ip), vehicle: carboxymethylcellulose (CMC) 111 % of control

N#Cc1ccc(Cl)cc1.N#Cc1ccc(Cl)cc1.[Cl][Pt][Cl]
inactive: dose: 6.25 mg/kg/injection, schedule: Q04DX003 (ip), vehicle: water 109 % of control | dose: 12.5 mg/kg/injection, schedule: Q04DX003 (ip), vehicle: water 105 % of control | dose: 25.0 mg/kg/injection, schedule: Q04DX003 (ip), vehicle: water 107 % of control | dose: 50.0 mg/kg/injection, schedule: Q04DX003 (ip), vehicle: water 109 % of control

Cc1ccc(S(=O)(=O)[N-][n+]2ccccc2)cc1
inactive: [12] 93 % of control | [13] 93 % of control

O=C(Nc1ccccc1)C(Cl)(Cl)Cl
inactive: dose: 50.0 mg/kg/injection, schedule: Q01DX001 (ip), vehicle: other 104 % of control | dose: 100.0 mg/kg/injection, schedule: Q01DX001 (ip), vehicle: other 102 % of control | dose: 100.0 mg/kg/injection, schedule: Q04DX002 (ip), vehicle: Klucel (hydroxypropylcellulose) (HPC) 106 % of control | dose: 200.0 mg/kg/injection, schedule: Q01DX001 (ip), vehicle: other 102 % of control | dose: 200.0 mg/kg/injection, schedule: Q04DX002 (ip), vehicle: Klucel (hydroxypropylcellulose) (HPC) 92 % of control | dose: 400.0 mg/kg/injection, schedule: Q01DX001 (ip), vehicle: other 104 % of control | dose: 400.0 mg/kg/injection, schedule: Q04DX002 (ip), vehicle: Klucel (hydroxypropylcellulose) (HPC) 89 % of control

O=C(c1ccncc1)n1cc2c(n1)CCCC2
inactive: [4] 87 % of control | [5] 92 % of control | [6] 95 % of control

OCC(O)C(O)C(O)C(c1ccccc1)c1ccccc1 (centres undefined)
inactive: [8] 107 % of control | [9] 98 % of control | [10] 96 % of control | [11] 98 % of control

CCc1nc(-c2ccccc2)c(-c2ccccc2)[nH]1
inactive: [14] 90 % of control | [15] 98 % of control | [16] 87 % of control

Nc1nc(SCC(=O)c2ccc(Cl)cc2)c2c(n1)SCC(c1ccc(Cl)cc1)=N2
inactive: [17] 97 % of control | [18] 101 % of control | dose: 400.0 mg/kg/injection, schedule: Q01DX001 (ip), vehicle: saline with Tween-80 92 % of control

Cc1ccc(NS(=O)(=O)c2ccc([N+](=O)[O-])cc2)cc1
inactive: dose: 100.0 mg/kg/injection, schedule: Q04DX003 (ip), vehicle: saline with Tween-80 103 % of control | dose: 200.0 mg/kg/injection, schedule: Q04DX003 (ip), vehicle: saline with Tween-80 89 % of control | dose: 400.0 mg/kg/injection, schedule: Q04DX003 (ip), vehicle: saline with Tween-80 89 % of control

CCCCOP(=O)(C=C(C(C)=O)C(C)=O)OCCCC
inactive: [4] 95 % of control | [5] 119 % of control | [6] 97 % of control

O=S(=O)(F)c1cc(Cl)c(O)cc1Cl
inactive: [12] 97 % of control | [13] 101 % of control

COC(=O)C(Nc1ccc([N+](=O)[O-])cc1[N+](=O)[O-])C(O)c1ccccc1 (centres undefined)
inactive: [9] 98 % of control | [10] 111 % of control | [11] 93 % of control

NC(=S)N/N=C/c1ccc(-c2ccccc2)cc1
inactive: [7] 103 % of control | dose: 50.0 mg/kg/injection, schedule: Q01DX009 (ip), vehicle: saline with Tween-80 113 % of control | dose: 100.0 mg/kg/injection, schedule: Q01DX001 (ip), vehicle: carboxymethylcellulose (CMC) 97 % of control | [14] 100 % of control | dose: 200.0 mg/kg/injection, schedule: Q01DX001 (ip), vehicle: carboxymethylcellulose (CMC) 103 % of control | dose: 400.0 mg/kg/injection, schedule: Q01DX001 (ip), vehicle: carboxymethylcellulose (CMC) 101 % of control

C=CC1(C)CCC2C(=CCC3C(C)(COC4OC(CO)C(O)C(O)C4O)C(O)CCC23C)C1 (centres undefined)
inactive: dose: 75.0 mg/kg/injection, schedule: Q01DX001 (ip), vehicle: saline 102 % of control | dose: 150.0 mg/kg/injection, schedule: Q01DX001 (ip), vehicle: saline 98 % of control

C[C@@H](N)[C@@H](O)c1ccccc1
inactive: dose: 30.0 mg/kg/injection, schedule: Q01DX Z (oral), vehicle: saline 101 % of control | dose: 60.0 mg/kg/injection, schedule: Q01DX Z (oral), vehicle: saline 101 % of control

CCOC(=O)C(N)CSCc1ccccc1 (centres undefined)
inactive: [14] 97 % of control | [15] 92 % of control | [16] 97 % of control

CCN(CC)C(=O)O/N=C/c1ccccc1
inactive: [9] 94 % of control | [10] 91 % of control | [11] 96 % of control

CC(C)(C)N1C(C(=O)c2ccccc2)C1C(=O)c1ccccc1 (centres undefined)
inactive: dose: 100.0 mg/kg/injection, schedule: Q01DX001 (ip), vehicle: Klucel (hydroxypropylcellulose) (HPC) 97 % of control | dose: 200.0 mg/kg/injection, schedule: Q01DX001 (ip), vehicle: Klucel (hydroxypropylcellulose) (HPC) 95 % of control | dose: 400.0 mg/kg/injection, schedule: Q01DX001 (ip), vehicle: Klucel (hydroxypropylcellulose) (HPC) 89 % of control

C=CCCC(=O)O
inactive: dose: 50.0 mg/kg/injection, schedule: Q01DX001 (ip), vehicle: saline with Tween-80 96 % of control | [17] 100 % of control | [18] 91 % of control
